ChEMBL document CHEMBL3991601, “The target landscape of clinical kinase drugs” (Science, 2017)
Active and inactive are the calls of the source. Cut-off read from the data, not from the text of the source, for most assays here: actives have a measured Kd and inactives only a lower limit.

Molecular target: Serine/threonine-protein kinase N1 (Homo sapiens, UniProt Q16512)
Note: in the data inactive means no Kd found up to 30 µM.

Serine/threonine-protein kinase N1, sequence (Q16512 whole entry): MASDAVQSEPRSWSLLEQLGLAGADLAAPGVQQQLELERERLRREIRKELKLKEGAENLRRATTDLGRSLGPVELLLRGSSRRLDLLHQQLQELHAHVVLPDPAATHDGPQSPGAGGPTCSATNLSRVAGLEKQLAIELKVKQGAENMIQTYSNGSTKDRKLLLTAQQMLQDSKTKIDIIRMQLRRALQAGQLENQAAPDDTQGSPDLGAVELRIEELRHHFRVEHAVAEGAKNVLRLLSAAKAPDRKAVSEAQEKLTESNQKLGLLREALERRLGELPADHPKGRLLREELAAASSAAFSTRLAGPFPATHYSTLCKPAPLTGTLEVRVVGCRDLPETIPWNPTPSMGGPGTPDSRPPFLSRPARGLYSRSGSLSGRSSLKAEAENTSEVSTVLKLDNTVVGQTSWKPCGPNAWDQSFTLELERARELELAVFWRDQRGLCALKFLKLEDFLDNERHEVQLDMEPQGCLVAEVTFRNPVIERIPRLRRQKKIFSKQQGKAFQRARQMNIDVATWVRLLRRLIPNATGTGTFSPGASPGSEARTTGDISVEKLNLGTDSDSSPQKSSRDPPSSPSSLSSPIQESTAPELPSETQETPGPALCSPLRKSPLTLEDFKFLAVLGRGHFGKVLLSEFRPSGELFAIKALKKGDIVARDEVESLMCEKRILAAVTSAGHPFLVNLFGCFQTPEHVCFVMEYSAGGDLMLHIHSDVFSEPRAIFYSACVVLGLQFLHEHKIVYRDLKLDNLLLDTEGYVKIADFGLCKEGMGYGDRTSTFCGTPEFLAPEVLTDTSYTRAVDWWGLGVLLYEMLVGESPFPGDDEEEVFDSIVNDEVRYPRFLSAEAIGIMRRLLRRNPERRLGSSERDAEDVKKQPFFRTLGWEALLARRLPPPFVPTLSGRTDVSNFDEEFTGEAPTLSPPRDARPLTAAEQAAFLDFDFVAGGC

Question: For Cc1cc(-c2cc(O)ccc2Cl)cc2nnc(Nc3ccc(OCCN4CCCC4)cc3)nc12, which Kd is on record?
Answer: > 30 µM (inactive)

Question: For CCN1CCN(Cc2ccc(-c3cc4c(N[C@H](C)c5ccccc5)ncnc4[nH]3)cc2)CC1 [AEE-788], which Kd is on record?
Answer: > 30 µM (inactive)

Question: For Cn1ncc(Cl)c1-c1cc(C(=O)N[C@H](CN)Cc2cccc(F)c2)sc1Cl [AFURESERTIB], which Kd is on record?
Answer: 0.88 µM (active)

Question: Which Kd does the source give for COc1cc(N2CCC(N3CCN(C)CC3)CC2)ccc1Nc1ncnc(Nc2ccccc2S(=O)(=O)C(C)C)n1 [ASP-3026] here?
Answer: > 30 µM (inactive)

Molecular target: Elongation factor Tu, mitochondrial (Homo sapiens, UniProt P49411)

Question: With Cc1cc(-c2cc(O)ccc2Cl)cc2nnc(Nc3ccc(OCCN4CCCC4)cc3)nc12 as the compound, how does the Kd read?
Answer: > 30 µM (inactive)

Question: How did the Kd turn out when CCN1CCN(Cc2ccc(-c3cc4c(N[C@H](C)c5ccccc5)ncnc4[nH]3)cc2)CC1 [AEE-788] was run?
Answer: > 30 µM (inactive)

Question: With Cn1ncc(Cl)c1-c1cc(C(=O)N[C@H](CN)Cc2cccc(F)c2)sc1Cl [AFURESERTIB] as the compound, how does the Kd read?
Answer: > 30 µM (inactive)

Question: Which Kd does the source give for COc1cc(N2CCC(N3CCN(C)CC3)CC2)ccc1Nc1ncnc(Nc2ccccc2S(=O)(=O)C(C)C)n1 [ASP-3026] here?
Answer: > 30 µM (inactive)

Molecular target: T1, Septin-9 (Homo sapiens, UniProt Q9UHD8)
T1 sequence (Q9UHD8 whole entry): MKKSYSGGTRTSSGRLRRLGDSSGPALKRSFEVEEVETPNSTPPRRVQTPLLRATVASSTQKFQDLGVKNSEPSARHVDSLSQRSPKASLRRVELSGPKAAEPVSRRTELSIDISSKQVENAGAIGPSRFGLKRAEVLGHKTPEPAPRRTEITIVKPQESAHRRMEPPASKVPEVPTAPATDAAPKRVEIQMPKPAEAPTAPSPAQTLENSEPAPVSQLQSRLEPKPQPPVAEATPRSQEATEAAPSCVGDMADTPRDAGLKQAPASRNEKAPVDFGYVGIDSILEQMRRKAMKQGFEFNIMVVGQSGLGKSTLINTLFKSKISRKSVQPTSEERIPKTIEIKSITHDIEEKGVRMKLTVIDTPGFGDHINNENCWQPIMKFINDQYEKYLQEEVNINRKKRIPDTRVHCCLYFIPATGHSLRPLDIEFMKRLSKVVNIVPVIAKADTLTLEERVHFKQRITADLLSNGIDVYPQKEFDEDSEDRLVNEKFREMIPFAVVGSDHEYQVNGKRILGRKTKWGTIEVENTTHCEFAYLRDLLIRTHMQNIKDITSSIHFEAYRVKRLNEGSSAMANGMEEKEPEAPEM

Question: Cc1cc(-c2cc(O)ccc2Cl)cc2nnc(Nc3ccc(OCCN4CCCC4)cc3)nc12 was tested. Which Kd did it give?
Answer: > 30 µM (inactive)

Question: Which Kd does the source give for CCN1CCN(Cc2ccc(-c3cc4c(N[C@H](C)c5ccccc5)ncnc4[nH]3)cc2)CC1 [AEE-788] here?
Answer: > 30 µM (inactive)

Question: Cn1ncc(Cl)c1-c1cc(C(=O)N[C@H](CN)Cc2cccc(F)c2)sc1Cl [AFURESERTIB] was tested. Which Kd did it give?
Answer: > 30 µM (inactive)

Question: For COc1cc(N2CCC(N3CCN(C)CC3)CC2)ccc1Nc1ncnc(Nc2ccccc2S(=O)(=O)C(C)C)n1 [ASP-3026], which Kd is on record?
Answer: > 30 µM (inactive)

Molecular target: Eukaryotic translation initiation factor 2-alpha kinase 1 (Homo sapiens, UniProt Q9BQI3)
Sequence (Q9BQI3 whole entry): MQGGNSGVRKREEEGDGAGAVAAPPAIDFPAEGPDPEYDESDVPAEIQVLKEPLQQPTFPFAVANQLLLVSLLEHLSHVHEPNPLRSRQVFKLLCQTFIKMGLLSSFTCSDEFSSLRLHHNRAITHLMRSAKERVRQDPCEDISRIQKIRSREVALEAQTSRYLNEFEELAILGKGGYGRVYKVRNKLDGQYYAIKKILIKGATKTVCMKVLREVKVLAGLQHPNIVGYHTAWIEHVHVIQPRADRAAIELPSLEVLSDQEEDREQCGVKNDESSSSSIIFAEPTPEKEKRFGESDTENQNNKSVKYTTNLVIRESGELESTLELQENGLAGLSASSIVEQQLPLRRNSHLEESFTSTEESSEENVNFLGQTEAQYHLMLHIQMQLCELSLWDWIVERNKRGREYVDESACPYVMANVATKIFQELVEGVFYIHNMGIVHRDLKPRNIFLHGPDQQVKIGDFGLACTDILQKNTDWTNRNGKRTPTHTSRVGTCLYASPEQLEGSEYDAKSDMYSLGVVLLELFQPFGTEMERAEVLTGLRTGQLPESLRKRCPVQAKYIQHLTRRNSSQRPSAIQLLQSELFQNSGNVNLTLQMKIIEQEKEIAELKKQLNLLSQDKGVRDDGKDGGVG

Question: With Cc1cc(-c2cc(O)ccc2Cl)cc2nnc(Nc3ccc(OCCN4CCCC4)cc3)nc12 as the compound, how does the Kd read?
Answer: > 30 µM (inactive)

Question: Which Kd does the source give for CCN1CCN(Cc2ccc(-c3cc4c(N[C@H](C)c5ccccc5)ncnc4[nH]3)cc2)CC1 [AEE-788] here?
Answer: > 30 µM (inactive)

Question: How did the Kd turn out when Cn1ncc(Cl)c1-c1cc(C(=O)N[C@H](CN)Cc2cccc(F)c2)sc1Cl [AFURESERTIB] was run?
Answer: > 30 µM (inactive)

Question: With COc1cc(N2CCC(N3CCN(C)CC3)CC2)ccc1Nc1ncnc(Nc2ccccc2S(=O)(=O)C(C)C)n1 [ASP-3026] as the compound, how does the Kd read?
Answer: > 30 µM (inactive)

Molecular target: Serine/threonine-protein kinase MRCK alpha (Homo sapiens, UniProt Q5VT25)
Sequence (Q5VT25 whole entry): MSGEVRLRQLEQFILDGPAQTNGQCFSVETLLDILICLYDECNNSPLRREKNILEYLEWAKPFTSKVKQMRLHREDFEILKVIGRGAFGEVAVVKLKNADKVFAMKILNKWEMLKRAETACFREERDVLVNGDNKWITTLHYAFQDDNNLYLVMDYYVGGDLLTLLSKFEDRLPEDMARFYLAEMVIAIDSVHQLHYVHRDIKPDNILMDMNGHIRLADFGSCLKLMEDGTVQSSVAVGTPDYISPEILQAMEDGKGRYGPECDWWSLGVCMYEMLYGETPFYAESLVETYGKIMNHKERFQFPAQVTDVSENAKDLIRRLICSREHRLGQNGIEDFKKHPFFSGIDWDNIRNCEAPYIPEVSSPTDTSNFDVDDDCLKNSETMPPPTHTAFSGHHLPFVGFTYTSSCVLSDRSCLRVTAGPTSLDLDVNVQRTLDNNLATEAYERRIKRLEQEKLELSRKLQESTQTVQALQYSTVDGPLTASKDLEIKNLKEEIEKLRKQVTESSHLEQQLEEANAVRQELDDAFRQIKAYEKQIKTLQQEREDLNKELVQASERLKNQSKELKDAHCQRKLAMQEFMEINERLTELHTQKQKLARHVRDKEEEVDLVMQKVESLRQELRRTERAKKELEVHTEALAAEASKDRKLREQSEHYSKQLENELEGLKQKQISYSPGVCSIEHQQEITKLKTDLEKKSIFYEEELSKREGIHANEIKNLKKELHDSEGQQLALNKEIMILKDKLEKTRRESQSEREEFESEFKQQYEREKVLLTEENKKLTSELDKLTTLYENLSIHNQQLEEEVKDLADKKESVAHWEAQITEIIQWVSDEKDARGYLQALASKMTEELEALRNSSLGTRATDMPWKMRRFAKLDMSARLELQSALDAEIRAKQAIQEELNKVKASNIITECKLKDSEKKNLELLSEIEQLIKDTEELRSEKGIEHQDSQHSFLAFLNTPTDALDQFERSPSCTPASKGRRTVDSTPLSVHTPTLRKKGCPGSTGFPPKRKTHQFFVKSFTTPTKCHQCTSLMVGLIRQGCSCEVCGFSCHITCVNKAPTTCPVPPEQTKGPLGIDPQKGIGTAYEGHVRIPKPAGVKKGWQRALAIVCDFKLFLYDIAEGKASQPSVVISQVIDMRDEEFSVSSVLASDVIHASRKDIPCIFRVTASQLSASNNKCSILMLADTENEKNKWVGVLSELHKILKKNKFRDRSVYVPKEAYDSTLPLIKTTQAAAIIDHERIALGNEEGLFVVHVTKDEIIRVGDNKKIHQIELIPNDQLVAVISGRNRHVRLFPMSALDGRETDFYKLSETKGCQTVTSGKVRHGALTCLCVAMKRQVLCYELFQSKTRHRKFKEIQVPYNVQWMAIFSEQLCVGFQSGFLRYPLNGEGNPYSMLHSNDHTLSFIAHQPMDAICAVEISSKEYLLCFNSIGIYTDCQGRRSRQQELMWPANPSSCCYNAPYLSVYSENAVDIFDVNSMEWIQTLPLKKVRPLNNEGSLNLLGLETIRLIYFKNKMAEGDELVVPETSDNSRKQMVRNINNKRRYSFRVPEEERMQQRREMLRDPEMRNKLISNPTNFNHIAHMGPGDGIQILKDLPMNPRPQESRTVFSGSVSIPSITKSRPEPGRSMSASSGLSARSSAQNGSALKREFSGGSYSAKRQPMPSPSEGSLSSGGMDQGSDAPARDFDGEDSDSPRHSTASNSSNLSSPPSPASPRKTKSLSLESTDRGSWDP

Question: Cc1cc(-c2cc(O)ccc2Cl)cc2nnc(Nc3ccc(OCCN4CCCC4)cc3)nc12 was tested. Which Kd did it give?
Answer: > 30 µM (inactive)

Question: Which Kd does the source give for CCN1CCN(Cc2ccc(-c3cc4c(N[C@H](C)c5ccccc5)ncnc4[nH]3)cc2)CC1 [AEE-788] here?
Answer: > 30 µM (inactive)

Question: Cn1ncc(Cl)c1-c1cc(C(=O)N[C@H](CN)Cc2cccc(F)c2)sc1Cl [AFURESERTIB] was tested. Which Kd did it give?
Answer: > 30 µM (inactive)

Question: With COc1cc(N2CCC(N3CCN(C)CC3)CC2)ccc1Nc1ncnc(Nc2ccccc2S(=O)(=O)C(C)C)n1 [ASP-3026] as the compound, how does the Kd read?
Answer: > 30 µM (inactive)

Molecular target: Mitogen-activated protein kinase 9 (Homo sapiens, UniProt P45984)
Sequence (P45984 whole entry): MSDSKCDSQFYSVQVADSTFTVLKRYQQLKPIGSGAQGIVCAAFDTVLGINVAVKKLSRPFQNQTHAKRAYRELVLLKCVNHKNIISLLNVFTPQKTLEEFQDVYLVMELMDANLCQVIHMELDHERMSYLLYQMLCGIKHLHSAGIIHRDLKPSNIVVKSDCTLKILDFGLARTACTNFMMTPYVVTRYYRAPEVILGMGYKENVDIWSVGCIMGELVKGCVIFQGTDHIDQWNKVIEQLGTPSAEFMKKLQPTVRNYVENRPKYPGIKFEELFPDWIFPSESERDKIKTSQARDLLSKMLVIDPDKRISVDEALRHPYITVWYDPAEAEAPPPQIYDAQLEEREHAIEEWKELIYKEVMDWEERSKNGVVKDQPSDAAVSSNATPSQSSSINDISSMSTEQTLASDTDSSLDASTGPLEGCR

Question: Which Kd does the source give for Cc1cc(-c2cc(O)ccc2Cl)cc2nnc(Nc3ccc(OCCN4CCCC4)cc3)nc12 here?
Answer: > 30 µM (inactive)

Question: How did the Kd turn out when CCN1CCN(Cc2ccc(-c3cc4c(N[C@H](C)c5ccccc5)ncnc4[nH]3)cc2)CC1 [AEE-788] was run?
Answer: > 30 µM (inactive)

Question: For Cn1ncc(Cl)c1-c1cc(C(=O)N[C@H](CN)Cc2cccc(F)c2)sc1Cl [AFURESERTIB], which Kd is on record?
Answer: > 30 µM (inactive)

Question: COc1cc(N2CCC(N3CCN(C)CC3)CC2)ccc1Nc1ncnc(Nc2ccccc2S(=O)(=O)C(C)C)n1 [ASP-3026] was tested. Which Kd did it give?
Answer: > 30 µM (inactive)

Molecular target: Casein kinase I isoform epsilon (Homo sapiens, UniProt P49674)
Sequence (P49674 whole entry, canonical isoform): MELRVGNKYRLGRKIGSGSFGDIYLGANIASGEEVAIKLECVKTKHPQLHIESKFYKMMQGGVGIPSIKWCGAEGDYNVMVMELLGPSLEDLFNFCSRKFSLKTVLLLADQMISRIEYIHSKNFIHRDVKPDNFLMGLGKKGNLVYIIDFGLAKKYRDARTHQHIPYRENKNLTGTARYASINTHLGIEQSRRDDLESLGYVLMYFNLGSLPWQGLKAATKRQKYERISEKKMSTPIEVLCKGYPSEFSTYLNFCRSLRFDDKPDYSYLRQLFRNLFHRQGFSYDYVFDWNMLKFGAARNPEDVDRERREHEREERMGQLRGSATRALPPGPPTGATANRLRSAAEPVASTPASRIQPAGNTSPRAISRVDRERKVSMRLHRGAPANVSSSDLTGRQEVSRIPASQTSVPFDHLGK

Question: How did the Kd turn out when Cc1cc(-c2cc(O)ccc2Cl)cc2nnc(Nc3ccc(OCCN4CCCC4)cc3)nc12 was run?
Answer: > 30 µM (inactive)

Question: Which Kd does the source give for CCN1CCN(Cc2ccc(-c3cc4c(N[C@H](C)c5ccccc5)ncnc4[nH]3)cc2)CC1 [AEE-788] here?
Answer: > 30 µM (inactive)

Question: Which Kd does the source give for Cn1ncc(Cl)c1-c1cc(C(=O)N[C@H](CN)Cc2cccc(F)c2)sc1Cl [AFURESERTIB] here?
Answer: > 30 µM (inactive)

Question: How did the Kd turn out when COc1cc(N2CCC(N3CCN(C)CC3)CC2)ccc1Nc1ncnc(Nc2ccccc2S(=O)(=O)C(C)C)n1 [ASP-3026] was run?
Answer: > 30 µM (inactive)

Molecular target: Dual specificity mitogen-activated protein kinase kinase 1 (Homo sapiens, UniProt Q02750)

Question: Which Kd does the source give for Cc1cc(-c2cc(O)ccc2Cl)cc2nnc(Nc3ccc(OCCN4CCCC4)cc3)nc12 here?
Answer: > 30 µM (inactive)

Question: How did the Kd turn out when CCN1CCN(Cc2ccc(-c3cc4c(N[C@H](C)c5ccccc5)ncnc4[nH]3)cc2)CC1 [AEE-788] was run?
Answer: > 30 µM (inactive)

Question: Which Kd does the source give for Cn1ncc(Cl)c1-c1cc(C(=O)N[C@H](CN)Cc2cccc(F)c2)sc1Cl [AFURESERTIB] here?
Answer: > 30 µM (inactive)

Question: With COc1cc(N2CCC(N3CCN(C)CC3)CC2)ccc1Nc1ncnc(Nc2ccccc2S(=O)(=O)C(C)C)n1 [ASP-3026] as the compound, how does the Kd read?
Answer: > 30 µM (inactive)

Molecular target: NADH dehydrogenase [ubiquinone] 1 alpha subcomplex subunit 13 (Homo sapiens, UniProt Q9P0J0)
Sequence (Q9P0J0 whole entry, one chain of several): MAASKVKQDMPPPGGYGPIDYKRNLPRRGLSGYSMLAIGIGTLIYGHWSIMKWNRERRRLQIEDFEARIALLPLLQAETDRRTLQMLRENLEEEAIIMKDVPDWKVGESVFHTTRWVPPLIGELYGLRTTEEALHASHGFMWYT

Question: How did the Kd turn out when Cc1cc(-c2cc(O)ccc2Cl)cc2nnc(Nc3ccc(OCCN4CCCC4)cc3)nc12 was run?
Answer: > 30 µM (inactive)

Question: CCN1CCN(Cc2ccc(-c3cc4c(N[C@H](C)c5ccccc5)ncnc4[nH]3)cc2)CC1 [AEE-788] was tested. Which Kd did it give?
Answer: > 30 µM (inactive)

Question: How did the Kd turn out when Cn1ncc(Cl)c1-c1cc(C(=O)N[C@H](CN)Cc2cccc(F)c2)sc1Cl [AFURESERTIB] was run?
Answer: > 30 µM (inactive)

Question: COc1cc(N2CCC(N3CCN(C)CC3)CC2)ccc1Nc1ncnc(Nc2ccccc2S(=O)(=O)C(C)C)n1 [ASP-3026] was tested. Which Kd did it give?
Answer: > 30 µM (inactive)

Molecular target: Tyrosine-protein kinase FRK (Homo sapiens, UniProt P42685)
Sequence (P42685 whole entry): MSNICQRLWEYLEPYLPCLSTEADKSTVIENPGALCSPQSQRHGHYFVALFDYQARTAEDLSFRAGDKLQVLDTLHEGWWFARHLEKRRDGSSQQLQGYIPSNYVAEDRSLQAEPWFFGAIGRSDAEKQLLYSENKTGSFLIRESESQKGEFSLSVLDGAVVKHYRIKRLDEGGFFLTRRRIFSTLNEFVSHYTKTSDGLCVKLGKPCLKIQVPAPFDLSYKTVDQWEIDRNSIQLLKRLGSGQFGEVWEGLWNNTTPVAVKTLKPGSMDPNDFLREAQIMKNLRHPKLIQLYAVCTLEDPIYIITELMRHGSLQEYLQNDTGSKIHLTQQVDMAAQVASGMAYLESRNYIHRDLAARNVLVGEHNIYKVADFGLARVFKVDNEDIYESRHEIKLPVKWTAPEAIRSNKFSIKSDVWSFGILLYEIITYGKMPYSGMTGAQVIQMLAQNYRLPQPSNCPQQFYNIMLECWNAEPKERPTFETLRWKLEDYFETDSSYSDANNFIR

Question: For Cc1cc(-c2cc(O)ccc2Cl)cc2nnc(Nc3ccc(OCCN4CCCC4)cc3)nc12, which Kd is on record?
Answer: 0.001 µM (active)

Question: CCN1CCN(Cc2ccc(-c3cc4c(N[C@H](C)c5ccccc5)ncnc4[nH]3)cc2)CC1 [AEE-788] was tested. Which Kd did it give?
Answer: > 30 µM (inactive)

Question: Cn1ncc(Cl)c1-c1cc(C(=O)N[C@H](CN)Cc2cccc(F)c2)sc1Cl [AFURESERTIB] was tested. Which Kd did it give?
Answer: > 30 µM (inactive)

Question: Which Kd does the source give for COc1cc(N2CCC(N3CCN(C)CC3)CC2)ccc1Nc1ncnc(Nc2ccccc2S(=O)(=O)C(C)C)n1 [ASP-3026] here?
Answer: 0.39 µM (active)

Molecular target: T2, Serine/threonine-protein kinase NLK (Homo sapiens, UniProt Q9UBE8)
T2 sequence (Q9UBE8 whole entry): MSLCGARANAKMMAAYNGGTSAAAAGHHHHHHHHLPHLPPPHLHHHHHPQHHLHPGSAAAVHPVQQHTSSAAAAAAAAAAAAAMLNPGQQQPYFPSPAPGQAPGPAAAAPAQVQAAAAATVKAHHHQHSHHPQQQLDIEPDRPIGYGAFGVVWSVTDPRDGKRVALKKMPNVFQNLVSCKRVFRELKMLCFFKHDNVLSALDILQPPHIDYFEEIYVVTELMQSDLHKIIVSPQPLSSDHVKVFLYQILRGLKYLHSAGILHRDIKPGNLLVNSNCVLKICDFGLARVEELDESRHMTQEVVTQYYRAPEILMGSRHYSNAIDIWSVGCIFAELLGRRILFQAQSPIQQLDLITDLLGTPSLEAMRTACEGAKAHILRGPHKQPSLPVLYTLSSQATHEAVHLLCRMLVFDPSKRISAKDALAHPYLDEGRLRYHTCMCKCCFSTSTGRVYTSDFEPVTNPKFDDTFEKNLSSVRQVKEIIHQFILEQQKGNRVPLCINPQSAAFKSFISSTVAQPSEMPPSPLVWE

Question: For Cc1cc(-c2cc(O)ccc2Cl)cc2nnc(Nc3ccc(OCCN4CCCC4)cc3)nc12, which Kd is on record?
Answer: 0.003 µM (active)

Question: How did the Kd turn out when CCN1CCN(Cc2ccc(-c3cc4c(N[C@H](C)c5ccccc5)ncnc4[nH]3)cc2)CC1 [AEE-788] was run?
Answer: > 30 µM (inactive)

Question: With Cn1ncc(Cl)c1-c1cc(C(=O)N[C@H](CN)Cc2cccc(F)c2)sc1Cl [AFURESERTIB] as the compound, how does the Kd read?
Answer: > 30 µM (inactive)

Question: With COc1cc(N2CCC(N3CCN(C)CC3)CC2)ccc1Nc1ncnc(Nc2ccccc2S(=O)(=O)C(C)C)n1 [ASP-3026] as the compound, how does the Kd read?
Answer: > 30 µM (inactive)

Molecular target: T3, Activin receptor type-1B (Homo sapiens, UniProt P36896)
T3 sequence (P36896 whole entry): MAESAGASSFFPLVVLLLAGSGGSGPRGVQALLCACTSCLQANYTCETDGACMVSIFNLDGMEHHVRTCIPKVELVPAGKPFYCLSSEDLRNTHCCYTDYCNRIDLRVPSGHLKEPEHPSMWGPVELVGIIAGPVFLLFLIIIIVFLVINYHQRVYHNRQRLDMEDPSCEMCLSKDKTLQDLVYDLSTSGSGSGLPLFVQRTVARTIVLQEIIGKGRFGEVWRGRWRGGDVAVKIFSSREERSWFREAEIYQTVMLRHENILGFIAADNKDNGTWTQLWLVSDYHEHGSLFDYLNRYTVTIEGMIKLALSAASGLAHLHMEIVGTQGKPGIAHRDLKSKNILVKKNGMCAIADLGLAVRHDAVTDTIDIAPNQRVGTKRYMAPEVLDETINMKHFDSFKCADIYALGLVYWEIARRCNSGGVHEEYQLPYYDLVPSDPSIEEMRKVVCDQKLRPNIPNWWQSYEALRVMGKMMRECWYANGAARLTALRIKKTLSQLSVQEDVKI

Question: For Cc1cc(-c2cc(O)ccc2Cl)cc2nnc(Nc3ccc(OCCN4CCCC4)cc3)nc12, which Kd is on record?
Answer: 0.001 µM (active)

Question: CCN1CCN(Cc2ccc(-c3cc4c(N[C@H](C)c5ccccc5)ncnc4[nH]3)cc2)CC1 [AEE-788] was tested. Which Kd did it give?
Answer: > 30 µM (inactive)

Question: Cn1ncc(Cl)c1-c1cc(C(=O)N[C@H](CN)Cc2cccc(F)c2)sc1Cl [AFURESERTIB] was tested. Which Kd did it give?
Answer: > 30 µM (inactive)

Question: Which Kd does the source give for COc1cc(N2CCC(N3CCN(C)CC3)CC2)ccc1Nc1ncnc(Nc2ccccc2S(=O)(=O)C(C)C)n1 [ASP-3026] here?
Answer: > 30 µM (inactive)
